Test results reported in PMC8284453 (Antimicrobial Agents and Chemotherapy, 2021).
In brackets after ≈: the same amount, converted by molar mass. Like-named read-outs stand apart in the source and are kept apart here.

Assays:
[1] = test system: K. pneumoniae ATCC BAA-1705 (KPC-2); assay: Broth microdilution MIC; type: cell-based; conditions: modal value, 5 independent determinations
[2] = test system: K. pneumoniae 752286 (OXA-48); assay: Broth microdilution MIC; type: cell-based; conditions: modal value, 5 independent determinations
[3] = test system: E. coli ESBL4 (CTX-M-15); assay: Broth microdilution MIC; type: cell-based; conditions: modal value, 5 independent determinations
[4] = test system: Enterobacterales expressing class D oxacillinases (OXA-48/48-like); assay: organism not typed; type: cell-based, E. coli, K. pneumoniae; conditions: for MIC50 / MIC90: 25 isolates, BLI fixed at 4 μg/ml, AMC 2:1
[5] = test system: Enterobacterales expressing class C cephalosporinases

C[C@@H](O)[C@H]1C(=O)N2C(C(=O)O)=C(S[C@H]3CC[S@@+]([O-])C3)S[C@H]12 [Sulopenem]
MIC [1]: 32 µg/mL (≈ 91.6 µM) | MIC [2]: 16 µg/mL (≈ 45.8 µM) | MIC [3]: 0.12 µg/mL (≈ 0.343 µM) | MIC50 [4]: 8 µg/mL (≈ 22.9 µM) | MIC90 [4]: 16 µg/mL (≈ 45.8 µM) | MIC50 ([4]; listed as sulopenem): 4 to 8 µg/mL | MIC90 ([4]; listed as sulopenem): 16 to 32 µg/mL | MIC ([4]; E. coli 664507 (OXA-48)): 8 µg/mL (≈ 22.9 µM) | MIC ([4]; E. coli 664516 (OXA-48)): 16 µg/mL (≈ 45.8 µM) | MIC ([4]; E. coli 664520 (OXA-48)): 8 µg/mL (≈ 22.9 µM) | MIC ([4]; E. coli 664522 (OXA-48)): 16 µg/mL (≈ 45.8 µM) | MIC ([4]; E. coli 664523 (OXA-48)): 4 µg/mL (≈ 11.4 µM) | MIC ([4]; E. coli 664524 (OXA-48)): 8 µg/mL (≈ 22.9 µM) | MIC ([4]; E. coli 664525 (OXA-48)): 16 µg/mL (≈ 45.8 µM) | MIC ([4]; E. coli 664526 (OXA-48)): 8 µg/mL (≈ 22.9 µM) | MIC ([4]; E. coli 664528 (OXA-48)): 8 µg/mL (≈ 22.9 µM) | MIC ([4]; E. coli 787112 (OXA-48)): 16 µg/mL (≈ 45.8 µM) | MIC ([4]; E. coli SI-422 (OXA-48)): 4 µg/mL (≈ 11.4 µM) | MIC ([4]; E. coli VER (OXA-48)): 4 µg/mL (≈ 11.4 µM) | MIC ([4]; K. pneumoniae 6299 (OXA-163)): 1 µg/mL (≈ 2.86 µM) | MIC ([4]; K. pneumoniae 515746 (OXA-48), first line): 2 µg/mL (≈ 5.72 µM) | MIC ([4]; K. pneumoniae 515746 (OXA-48), second line): 4 µg/mL (≈ 11.4 µM) | MIC ([4]; K. pneumoniae 664438 (OXA-48)): 8 µg/mL (≈ 22.9 µM) | MIC ([4]; K. pneumoniae 664439 (OXA-48)): 8 µg/mL (≈ 22.9 µM) | MIC ([4]; K. pneumoniae 664509 (OXA-48)): ≥ 64 µg/mL | MIC ([4]; K. pneumoniae 664518 (OXA-48)): 8 µg/mL (≈ 22.9 µM) | MIC ([4]; K. pneumoniae 722870 (OXA-48)): 8 µg/mL (≈ 22.9 µM) | MIC ([4]; K. pneumoniae BAH (OXA-204)): 4 µg/mL (≈ 11.4 µM) | MIC ([4]; K. pneumoniae DEL (OXA-232)): 32 µg/mL (≈ 91.6 µM) | MIC ([4]; K. pneumoniae DOV (OXA-48)): 2 µg/mL (≈ 5.72 µM) | MIC ([4]; K. pneumoniae KIRK (OXA-162)): 4 µg/mL (≈ 11.4 µM) | MIC ([4]; K. pneumoniae SI-C17 (OXA-48)): 16 µg/mL (≈ 45.8 µM) | MIC90 ([5]; 25 isolates, BLI fixed at 4 μg/ml, AMC 2:1): 2 µg/mL (≈ 5.72 µM) | MIC ([5]; C. freundii 134390 (AmpC, TEM-1)): 0.06 µg/mL (≈ 0.172 µM) | MIC ([5]; E. aerogenes 110099 (AmpC, SHV-12)): 0.06 µg/mL (≈ 0.172 µM) | MIC ([5]; E. aerogenes 111707 (AmpC, TEM-1)): 0.12 µg/mL (≈ 0.343 µM) | MIC ([5]; E. aerogenes 111902 (AmpC, TEM-1)): 0.25 µg/mL (≈ 0.715 µM) | MIC ([5]; E. coli 128 (AmpC, SHV-12, TEM-1, Toho-2)): 0.03 µg/mL (≈ 0.0858 µM) | MIC ([5]; E. coli 3102 (AmpC, CTX-M-15, TEM-1)): 0.03 µg/mL (≈ 0.0858 µM) | MIC ([5]; E. coli CH1 (AmpC, CTX-M-15, SHV-1, SHV-5, TEM-1)): 0.06 µg/mL (≈ 0.172 µM) | MIC ([5]; E. coli EC469 (AmpC, SHV-12, TEM-1)): 0.03 µg/mL (≈ 0.0858 µM) | MIC ([5]; E. coli J53 (AmpC, SHV-5, TEM-1)): 0.06 µg/mL (≈ 0.172 µM) | MIC ([5]; E. coli SI-P026TC (CMY-2, TEM-1)): 0.25 µg/mL (≈ 0.715 µM) | MIC ([5]; E. coli SI-PO26 (AmpC, CMY-2, TEM-1)): 0.12 µg/mL (≈ 0.343 µM) | MIC ([5]; K. pneumoniae 129032 (MOX-2, SHV-12, TEM-1)): 0.06 µg/mL (≈ 0.172 µM) | MIC ([5]; K. pneumoniae 178279 (AmpC, SHV-12, TEM-1)): 0.06 µg/mL (≈ 0.172 µM) | MIC ([5]; K. pneumoniae 212027 (AmpC, FOX-5, TEM-1)): 0.03 µg/mL (≈ 0.0858 µM) | MIC ([5]; K. pneumoniae 217917 (CMY-2, TEM-1)): 0.06 µg/mL (≈ 0.172 µM) | MIC ([5]; K. pneumoniae 301313 (AmpC, SHV-12, TEM-1)): 0.12 µg/mL (≈ 0.343 µM) | MIC ([5]; K. pneumoniae 398845 (CMY-2, SHV-12, TEM-1)): 0.06 µg/mL (≈ 0.172 µM) | MIC ([5]; K. pneumoniae SI-F100 (CMY-2, SHV-5, TEM-1)): 0.03 µg/mL (≈ 0.0858 µM) | MIC ([5]; P. mirabilis SI-F014 (AmpC, TEM-72)): 1 µg/mL (≈ 2.86 µM) | MIC ([5]; S. marcescens 132253 (AmpC, CTX-M-3, OXA-1, SHV-12, TEM-1)): 2 µg/mL (≈ 5.72 µM) | MIC ([5]; S. marcescens 134434 (AmpC, SHV-12, TEM-1)): 8 µg/mL (≈ 22.9 µM) | MIC ([5]; S. marcescens 142397 (AmpC, SHV-7, TEM-1)): 2 µg/mL (≈ 5.72 µM) | MIC ([5]; S. marcescens 156212 (AmpC, SHV-12, TEM-1)): 1 µg/mL (≈ 2.86 µM)
